“Also recorded” adds a separate entry of the source.
Tests used:
Assay type in all cases: cell-based, human
[1] = system: platelets; assay: Platelet coverage on TNF-α pretreated, fixed (chemopreserved) endothelium in microfluidic device, whole blood perfusion
Procedure: (§1) By way of example, a microfluidic device is fabricated using photolithography followed by soft lithography with polydimethysiloxane (“PDMS”). According to this example, six microfluidic devices are placed on a single PDMS mold of the size of a standard glass slide, e.g., 75×25 millimeters (“mm”). The microfluidic devices are first exposed to oxygen plasma for 30 seconds using, for example, a PE-100 benchtop plasma system from Plasma Etch. Then, the microfluidic devices are treated with 1% (3-aminopropyl)-trimethoxysilane (“APTMS”), from Sigma, in 100% anhydrous ethanol for ten minutes. After subsequent rinsing with 70% and 100% ethanol, the microfluidic devices are dried and type I collagen from rat tail, e.g., 100 micrograms/milliliter (“μg/ml) from Corning, is introduced in microchannels of the microfluidic devices.
The microfluidic devices are left overnight at 37° C. in a 5% carbon dioxide (“CO2”) incubator, after which they are rinsed with Endothelial Growth Medium-2 (“EGM-2”) from Lonza. Human Umbilical Vein Endothelial Cells (“HUVEC”) from a mixed donor, by Lonza, are kept in culture and suspended at 12.5 million cells/milliliter (“mL”) in EGM-2, after confluence. The suspension is introduced into the collagen-coated microchannels, after which the microfluidic devices are incubated upside down for 20 minutes. A fresh HUVEC suspension is then introduced in the microchannels, after which the microfluidic devices are incubated for eight hours to promote cell attachment across the channel. The microchannels are, then, rinsed with EGM-2, sometimes containing a freshly prepared solution of tumor necrosis factor (“TNF-α”), which is a recombinant from E. coli from Sigma. […]
(§2) Platelets are visualized using time-lapse fluorescence imaging (e.g., 20×, NA 0.4). A time series of a 10-frame panorama (e.g., 6 mm long×0.665 mm wide region of a microchannel), at a lapse of every 30 seconds is recorded. […]

[2] = system: platelets; assay: Light transmission aggregometry (LTA) with ADP or collagen as agonist; conditions: blood treated ex vivo with abciximab, all doses; ADP 10 μM or collagen 2 μg/mL
Procedure: The LTA is performed in accordance with manufacturer instructions. For example, the LTA uses adenosine diphosphate (“ADP”) 10 μM and collagen 2 μg/mL from Chrono-Log.
Blood from healthy donors was treated ex vivo with abciximab or used untreated. These samples as well as clinical blood samples from subjects were centrifuged at 290 g for 10 min (no brake applied) to collect platelet rich plasma (PRP). To obtain a reference solution for each sample, PRP was centrifuged at high speed to pellet platelets (1,000 g, 10 min) and collect platelet poor plasma (PPP). CaCl2 was added to each sample at a final concentration of 1 mM to recalcify plasma before each run. Cifuni et al. “CalDAG-GEFI and protein kinase C represent alternative pathways leading to activation of integrin alphaIIbeta3 in platelets.” Blood 112, 1696-1703 (2008). LTA has then been performed at 37° C. under magnetic stirring using a Chrono-Log Corporation instrument.

[3] = system: platelets; assay: Platelet coverage in collagen-coated microfluidic device, whole blood perfusion; conditions: blood with different doses of abciximab; shear 750 sec^-1
Procedure: as §1
500 microliters (“μL”) of whole blood are pipetted into a fluid reservoir fitted to one end of a microchannel. Platelets are labeled with human CD41-PE antibody (e.g., 10 μL/mL from Invitrogen) that is directly added to the blood samples and incubated at room temperature for 10 minutes. […]
as §2

**Q.** Which “abciximab concentration at which optimal effects on platelet adhesion are observed” value ([1]; fixed endothelium pretreated with TNF-α 5 ng/mL) does the source give for abciximab here?
**A.** The value was ≥ 10 µg/mL.

**Q.** What about the “difference in platelet inhibition between 10 μg/ml and 100 μg/ml” value ([1]; fixed endothelium pretreated with TNF-α 5 ng/ml) of the same substance?
**A.** Its value is “insignificant”.

**Q.** What about the “platelet coverage (platelet adhesion) on fixed endothelium” value ([1]; healthy donor whole blood with abciximab 0-100 μg/mL, endothelium pretreated with TNF-α 5 ng/mL then fixed, shear 750 s^-1) of the same substance?
**A.** The value was “decreases with increase in abciximab drug concentration; also recorded: dose-dependent inhibition of platelet adhesion; also recorded: significant dose-dependent platelet inhibition”.

**Q.** And the “platelet aggregation by light transmission aggregometry” value [2]?
**A.** Its value is “no aggregation is observed; also recorded: virtually complete inhibition of platelet aggregation; also recorded: no platelet aggregability”.

**Q.** What about the “platelet coverage on collagen-coated microfluidic device” value [3] of the same substance?
**A.** The value was “insignificant decrease in platelet adhesion and aggregation; also recorded: small suppressive effect on platelet adhesion; also recorded: poor sensitivity”.

Reference: patent US10732172B1, “Methods, systems, and compositions for determining blood clot formation, and uses thereof” (President and Fellows of Harvard College, priority 2015, dated 2020)
